IC50 data for seven compounds are collected here from PMC6356855, “Two New Succinimide Derivatives Cladosporitins A and B from the Mangrove-derived Fungus Cladosporium sp. HNWSW-1” (Marine Drugs, 2018).

A word on the IC50: it is the concentration that gives 50% inhibition. The low end stands for greater potency, the high end for weaker potency.

A value given as a limit tells only on which side of the number the result lay.

The subject of one assay is SGC-7901 cell line. The assay is described as follows: MTT cytotoxicity assay, SGC-7901. Format: cell-based. Conditions: MTT method, mean ± SD, n = 3. Here is the method: (§1) The MTT method optimized by Mosmann et al. was performed in vitro to test the cytotoxic activity of compounds 1–6. Adriamycin was used as a positive control and the medium without the test compound was used as a negative control in the bioassay.
A general note: Formazan colour is commonly taken as a measure of viable cells.

The target in another assay is α-glycosidase. The assay is described as follows: α-glycosidase inhibitory activity assay. The assay is classed as biochemical. The following applies: α-glycosidase inhibition in vitro; mean ± SD, n = 3. Here is the method:
The method optimized by Jong et al. was performed in vitro to test the α-glucosidase inhibitory activity of compounds 1–5. Acarbose was used as positive control.

Another assay relates to K562 cell line. The assay is described as follows: MTT cytotoxicity assay, K562. The assay is classed as cell-based. Conditions: MTT method, mean ± SD, n = 3. Here is the method: as §1
For the next assay, the system named is Hela cell line. The assay is described as follows: MTT cytotoxicity assay, Hela. Format: cell-based. The following applies: MTT method, mean ± SD, n = 3. Here is the method: as §1
Another assay relates to BEL-7042 cell line. The assay is described as follows: MTT cytotoxicity assay, BEL-7042. The assay is classed as cell-based. The following applies: MTT method, mean ± SD, n = 3. Here is the method: as §1
Setting [1] is: Homo sapiens, SGC-7901, cytotoxicity.
[2] abbreviates: Homo sapiens, K562, cytotoxicity.

As for “1,3,6-trihydroxy-7-(1-hydroxyethyl) anthracene-9,10-dione [Compound 5]”, the IC50 with SGC-7901 cell line (cytotoxicity) was over 50 µM; at α-glycosidase, 49.3 ± 10.6 µM; with K562 cell line (cytotoxicity), over 50 µM; with Hela cell line, over 50 µM; with BEL-7042 cell line, over 50 µM.

With `C[C@H]1O[C@H](O[C@H]2[C@H](O)[C@@H](O)[C@@H](O[C@H]3[C@H](O)[C@@H](O)C(O)O[C@@H]3CO)O[C@@H]2CO)[C@H](O)[C@@H](O)[C@@H]1N[C@H]1C=C(CO)[C@@H](O)[C@H](O)[C@H]1O` (stereo partly drawn) [Acarbose, reference compound], the IC50 on α-glycosidase was 275.7 ± 2.7 µM.

Regarding `COc1cccc2c1C(=O)c1c(O)c3c(c(O)c1C2=O)C[C@@](O)(C(=O)CO)C[C@@H]3O[C@H]1C[C@H](N)[C@H](O)[C@H](C)O1` [Adriamycin, reference compound], the half-maximal inhibitory concentration (IC50) in the assay with SGC-7901 cell line (setting [1]) turned out to be 6.66 ± 0.2 µM; in the assay on K562 cell line (setting [2]), 14.2 ± 0.66 µM; in the assay on Hela cell line (Homo sapiens), 11.5 ± 0.18 µM; with BEL-7042 cell line, 11.9 ± 0.37 µM.

Consider `CCC(C)C=C(C)C1C(C)=CC2(C)CC(C)CCC2C1C(=O)C1C(=O)NC(=O)C1Cc1ccc(O)cc1` (stereo not drawn) [Compound 1, cladosporitin A], for which the half-inhibitory concentration (IC50) is over 50 µM in the assay with SGC-7901 cell line (setting [1]); over 500 µM against α-glycosidase; over 50 µM in the assay on K562 cell line (setting [2]); over 50 µM in the assay on Hela cell line (Homo sapiens); over 50 µM with BEL-7042 cell line.

Take `CCC(C)C=C(C)C1C(C)=CC2(C)CC(C)CCC2C1C(=O)C1C(=O)NC(=O)C1Cc1ccc(O)cc1` (stereo not drawn) [Compound 2, cladosporitin B]: the IC50 in the assay with SGC-7901 cell line (cytotoxicity) was 41.7 ± 0.71 µM; against α-glycosidase it was over 500 µM; in the assay with K562 cell line (cytotoxicity), 25.6 ± 0.47 µM; with Hela cell line, over 50 µM; in the assay on BEL-7042 cell line, 29.4 ± 0.35 µM.

`C/C=C/c1cc(=O)c2c(C)cc(O)cc2o1` [Compound 3, clapone]: the half-maximal inhibitory concentration (IC50) was over 50 µM in the assay on SGC-7901 cell line (setting [1]); over 500 µM against α-glycosidase; over 50 µM with K562 cell line (setting [2]); over 50 µM with Hela cell line (Homo sapiens); over 50 µM in the assay on BEL-7042 cell line.

Regarding `CCC(C)/C=C(\C)[C@H]1C(C)=C[C@@]2(C)C[C@@H](C)CC[C@@H]2[C@H]1C(=O)C1=C/C(=C/c2ccc(O)cc2)NC1=O` (stereo partly drawn) [Compound 4, talaroconvolutin A], the IC50 with SGC-7901 cell line (setting [1]) is over 50 µM; at α-glycosidase, 78.2 ± 2.1 µM; in the assay on K562 cell line (setting [2]), over 50 µM; with Hela cell line (Homo sapiens), 14.9 ± 0.21 µM; in the assay with BEL-7042 cell line it was 26.7 ± 1.1 µM.
